This note sets out measurements from PMC9408872, “Harmicens, Novel Harmine and Ferrocene Hybrids: Design, Synthesis and Biological Activity” (International Journal of Molecular Sciences, 2022).

Data set [1] relates to P. falciparum Dd2 (multidrug-resistant) erythrocytic stages. Description: In vitro drug sensitivity assay (HRP2-ELISA) against erythrocytic stages, PfDd2. The class given is cell-based. As to conditions: multidrug-resistant strain; three days incubation; mean ± SD; read-out: IC50 PfDd2. The protocol: (§1) The in vitro activity of harmicens 20–37 against the erythrocytic stages of CQ-sensitive (Pf3D7) and multidrug-resistant (PfDd2) P. falciparum strains was evaluated following a previously described method (Table 1).
(§2) The antiplasmodial activity of harmicens 20–37 was evaluated against two strains of P. falciparum (3D7—CQ-sensitive, Dd2—multidrug-resistant) as previously described using the histidine-rich protein 2 (HRP2) assay. Briefly, 96-well plates were pre-coated with the tested compounds in a three-fold dilution before ring-stage parasites were added to complete the culture medium at a hematocrit of 1.5% and parasitemia of 0.05%. After three days of incubation at 37 °C, 5% CO2, and 5% oxygen, plates were frozen until HRP2-ELISA analysis. All compounds were evaluated in duplicate in at least two independent experiments. The IC50 was determined using a nonlinear regression analysis of log concentration–response curves using the drc-package v0.9.0 of R v2.6.1 (R Foundation, Vienna, Austria).

For data set [2], the system named is MCF-7 (breast adenocarcinoma). Description: cells. The note with it: for IC50: read-out: IC50 MCF-7, 72 h, MTT, mean ± SD; for SI (MCF-7): selectivity index: ratio of IC50 Hek293T to IC50 MCF-7. The protocol:
(§3) The parent compound harmine, as well as the reference drug 5-fluorouracil, were used as positive controls.
(§4) The experiments were carried out on five human cell lines purchased from American Type Culture Collection (ATCC): HepG2 (hepatocellular carcinoma; ATCC® HB-8065™), SW620 (colorectal adenocarcinoma; ATCC® CCL-227™), HCT116 (colorectal carcinoma; ATCC® CCL-247™), MCF-7 (breast adenocarcinoma; ATCC® HTB-22™), and Hek293T (embryonic kidney cells; ATCC® CRL-3216™). All cell lines were cultured as monolayers and maintained in Dulbecco’s Modified Eagle Medium (DMEM) (Capricorn Scientific, Ebsdorfergrund, Germany) supplemented with 10% fetal bovine serum (FBS) (Capricorn Scientific, Ebsdorfergrund, Germany), 100 U/mL penicillin, and 100 µg/mL streptomycin (Capricorn Scientific, Ebsdorfergrund, Germany) in a humidified atmosphere with 5% CO2 at 37 °C. Cells were seeded in 96-well plates (Corning, Durham, NC, USA) at 5000–7000 cells per well (depending on the cell-doubling time of a specific cell line) in 0.1 mL media and cultured for 24 h. The next day, the medium was aspirated, and cells were treated for 72 h. Only the compounds that led to more than a 50% reduction in mitochondrial metabolic activity at a concentration of 50 µM were selected for further analysis. The following concentrations of selected compounds were used: 25, 10, 5, and 1 µM. Working dilutions were freshly prepared on the day of the testing. A fresh growth medium was added to untreated control cells, which were defined as 100% viable. DMSO (0.13%) in DMEM was considered a negative control. 5-Fluorouracil (5-FU) and harmine were used as positive controls. At the end of treatment, the medium was removed, and cells were incubated for 1 h with 0.5 mg/mL MTT (Abcam, Cambridge, MA, USA) dissolved in serum-deprived DMEM. The MTT-containing medium was then removed, and 0.1 mL isopropanol was added per well to lyse cells and dissolve formazan. The optical density was measured at 570 nm using a microplate reader (VICTOR3, PerkinElmer, Waltham, MA, USA). Each test point was performed in triplicate. The absorbance was directly proportional to the cell viability. The IC50 values (concentration required to decrease viability by 50%) were calculated by using nonlinear regression on the sigmoidal dose–response plots and are expressed as mean ± SD.

For data set [3], the system named is HepG2 (hepatocellular carcinoma). Description: MTT cytotoxicity assay, HepG2. It counts as cell-based, human. As to conditions: 72 h, MTT; mean ± SD; read-out: IC50 HepG2. The protocol:
as §3, §4
In general terms: Formazan colour is commonly taken as a measure of viable cells.

A further data set concerns HCT116 cells. Description: Cell cycle analysis (propidium iodide, flow cytometry). The class given is cell-based, human. As to conditions: 3 µM and 6 µM. The protocol:
To that end, the cells were treated for 24 and 48 h with 3 µM and 6 µM concentrations of each compound, which corresponded to 0.5 × IC50 and IC50 values obtained in the MTT assay after 72 h, respectively. Afterward, the DNA was stained with propidium iodide and subjected to flow cytometry analysis.
HCT116 cells were seeded onto 6-well plates (2 × 10^5 cells per well). After 24 h, the tested compounds 28 and 36 were added at two concentrations—3 µM and 6 µM. After 24 h and 48 h, the attached cells were trypsinized, combined with floating cells, washed with phosphate buffer saline (PBS), fixed with 70% ethanol, and stored at −20 °C. Immediately before analysis, the cells were washed two times with PBS, treated with 0.1 μg/μL of RNAse A, and stained for 1 h on ice with 50 μg/mL of propidium iodide. The stained cells were then analyzed using a BD FACScalibur flow cytometer (20,000 counts were measured). The percentage of cells in each cell cycle phase was determined using FlowJo software (TreeStar Inc., San Francisco, CA, USA). The tests were performed in duplicate and repeated in two separate experiments. The average values from duplicates from one representative experiment ± SD are presented.
Background: In flow cytometry, cells or beads pass a laser one at a time.

The test system of data set [4] is P. falciparum 3D7 (CQ-sensitive) erythrocytic stages. Description: In vitro drug sensitivity assay (HRP2-ELISA) against erythrocytic stages, Pf3D7. As to conditions: for IC50: read-out: IC50 Pf3D7. The class given is cell-based. How it is done: as §1, §2
On the technique in general: ELISA stands for enzyme-linked immunosorbent assay.

Data set [5] deals with HCT116 (colorectal carcinoma). Description: MTT cytotoxicity assay, HCT116. The class given is cell-based, human. As to conditions: for IC50: 72 h, MTT, mean ± SD, read-out: IC50 HCT116; for SI (HCT116): selectivity index: ratio of IC50 Hek293T to IC50 HCT116. How it is done:
as §3, §4

For data set [6], the system named is SW620 (colorectal adenocarcinoma). Description: MTT cytotoxicity assay, SW620. The class given is cell-based, human. The note with it: 72 h, MTT; mean ± SD; read-out: IC50 SW620. The protocol:
as §3, §4

For data set [7], the system named is Hek293T (embryonic kidney cells). Description: MTT cytotoxicity assay, Hek293T. As to conditions: noncancer cell line; 72 h, MTT; mean ± SD; read-out: IC50 Hek293T. It counts as cell-based, human. The protocol: as §3, §4
The mark [8] stands for this setting: CQ-sensitive strain, three days incubation, mean ± SD.

The IC50 is the concentration that inhibits the measured activity by half. Consider `Cc1nccc2c1[nH]c1cc(OCc3cn(C[c-]4cccc4)nn3)ccc12.[Fe+2].c1cc[cH-]c1` [Compound 28, 7-((1-(Ferrocenylmethyl)-1H-1,2,3-triazol-4-yl)methoxy)-1-methyl-9H-pyrido[3,4-b]indole], for which the IC50 in data set [1] is more than 56 µM; in data set [2], more than 50 µM; in data set [3] it was more than 50 µM; in data set [4] (setting [8]), more than 56 µM; in data set [5], 7.4 ± 0.4 µM; in data set [6], more than 50 µM. Moreover, the IC50 in data set [7] is more than 50 µM. Moreover, the “SI (MCF-7)” value in data set [2] is more than 1. The “effect on cell cycle distribution after 24 h” value in the data set with HCT116 cells is recorded as “statistically significant increase in cells in the G1 phase at both tested concentrations”. For the same compound, the “effect on cell cycle distribution after 48 h” value with HCT116 cells (48 h) is given as “pronounced G2/M cell cycle arrest”. Further, the “decrease in antiplasmodial activity against Pf3D7 relative to harmicene 23” value in data set [4] (28 (methylene bridge) versus its counterpart 23) amounted to 370 fold. For the same compound, the “IC50 Pf3D7” value in data set [4] (setting [8]) is “inactive at the highest concentration tested”. For the same compound, the “SI (HCT116)” value in data set [5] is on record as more than 6.8.

Turning to `Cc1nccc2c1[nH]c1cc(OCCNC(=O)C[c-]3cccc3)ccc12.[Fe+2].c1cc[cH-]c1` [Compound 36, N-(2-((1-Methyl-9H-pyrido[3,4-b]indol-7-yl)oxy)ethyl)-2-ferrocenylacetamide], the half-maximal inhibitory concentration (IC50) in data set [1] was determined as 1.53 ± 0.06 µM; in data set [2], 4.5 ± 0.3 µM; in data set [3], 7.4 ± 0.5 µM; in data set [4] (setting [8]) it was 0.42 ± 0.02 µM; in data set [5] it was 5.9 ± 1.3 µM; in data set [6] it was 4.2 ± 0.3 µM. The IC50 in data set [7] was determined as 8.4 ± 0.3 µM. For the same compound, the “SI (MCF-7)” value in data set [2] was 1.9. Besides, the “effect on cell cycle distribution after 24 h” value in the data set on HCT116 cells is listed as “G1 phase arrest only at a higher concentration”. Besides, the “SI (HCT116)” value in data set [5] is given as 1.4.

Turning to `[Fe+2].c1cc[cH-]c1.c1ccc2c(c1)[nH]c1c(-c3cn(C[c-]4cccc4)nn3)nccc12` [Compound 25, 1-(1-(Ferrocenylmethyl)-1H-1,2,3-triazol-4-yl)-9H-pyrido[3,4-b]indole], the IC50 in data set [1] was 4.37 ± 1.79 µM; in data set [2], more than 50 µM; in data set [3] it was more than 50 µM; in data set [4] (setting [8]) it was 3.62 ± 1.08 µM; in data set [5], 7.6 ± 0.5 µM; in data set [6] it was 23.1 ± 6.4 µM. For the same compound, the IC50 in data set [7] was more than 50 µM. Besides, the “SI (MCF-7)” value in data set [2] was more than 1. In data set [5], the “SI (HCT116)” value was more than 6.6.

With `Cc1nccc2c1[nH]c1cc(OCCn3cc(-[c-]4cccc4)nn3)ccc12.[Fe+2].c1cc[cH-]c1` [Compound 23, 1-Methyl-7-(2-(4-ferrocenyl-1H-1,2,3-triazol-1-yl)ethoxy)-9H-pyrido[3,4-b]indole], the IC50 in data set [1] was 1.02 ± 0.52 µM; in data set [2], 8 ± 0.2 µM; in data set [3] it was 9.5 ± 0.5 µM; in data set [4] (setting [8]), 0.15 ± 0.05 µM; in data set [5] it was 38.6 ± 2.8 µM; in data set [6], 7.6 ± 0.1 µM. Moreover, the IC50 in data set [7] turned out to be 17.1 ± 1.8 µM. For the same compound, the “SI (MCF-7)” value in data set [2] worked out at 2.1. The “SI (HCT116)” value in data set [5] amounted to 0.4.

Turning to `Cc1nc(CNC(=O)[c-]2cccc2)cc2c1[nH]c1ccccc12.[Fe+2].c1cc[cH-]c1` [Compound 31, N-((1-Methyl-9H-pyrido[3,4-b]indol-3-yl)methyl)ferrocenecarboxamide], the IC50 is 8.03 ± 0.19 µM in data set [1]; 19.9 ± 1.1 µM in data set [2]; more than 50 µM in data set [3]; 13.2 ± 8.54 µM in data set [4] (setting [8]); more than 50 µM in data set [5]; more than 50 µM in data set [6]. The IC50 in data set [7] was more than 50 µM. For the same compound, the “SI (MCF-7)” value in data set [2] is more than 2.51. Also, in data set [5], the “SI (HCT116)” value is more than 1.

Consider `Cc1nccc2c1[nH]c1ccc(OCCn3cc(-[c-]4cccc4)nn3)cc12.[Fe+2].c1cc[cH-]c1` [Compound 22, 1-Methyl-6-(2-(4-ferrocenyl-1H-1,2,3-triazol-1-yl)ethoxy)-9H-pyrido[3,4-b]indole], for which the IC50 in data set [1] stood at 0.89 ± 0.01 µM; in data set [2], 6.9 ± 0.5 µM; in data set [3] it was 8.4 ± 0.9 µM; in data set [4] (setting [8]), 0.35 ± 0.19 µM; in data set [5], 9 ± 0.7 µM; in data set [6] it was 6.5 ± 0.7 µM. Besides, the IC50 in data set [7] amounted to 7.3 ± 2.8 µM. For the same compound, the “SI (MCF-7)” value in data set [2] came out at 1.1. Besides, the “SI (HCT116)” value in data set [5] turned out to be 0.8.

As to `O=C(NCc1nccc2c1[nH]c1ccccc12)[c-]1cccc1.[Fe+2].c1cc[cH-]c1` [Compound 30, N-((9H-Pyrido[3,4-b]indol-1-yl)methyl)ferrocenecarboxamide], the IC50 was 14 ± 1.95 µM in data set [1]; 8.5 ± 1.5 µM in data set [2]; more than 50 µM in data set [3]; more than 56 µM in data set [4] (setting [8]); 16.8 ± 0.9 µM in data set [5]; 45.1 ± 3.7 µM in data set [6]. In data set [7], the IC50 was more than 50 µM. Also, the “activity against MCF-7 relative to 5-FU (fold stronger)” value in data set [2] is 3–6.5 fold. Also, the “SI (MCF-7)” value in data set [2] is reported as more than 5.9. For the same compound, the “SI (HCT116)” value in data set [5] is reported as more than 3.

With `[Fe+2].c1cc[cH-]c1.c1ccc2c(c1)[nH]c1c(Cn3cc(-[c-]4cccc4)nn3)nccc12` [Compound 20, 1-((4-Ferrocenyl-1H-1,2,3-triazol-1-yl)methyl)-9H-pyrido[3,4-b]indole], the IC50 is 11.2 ± 2.23 µM in data set [1]; 39.4 ± 7.9 µM in data set [2]; 43.9 ± 1.1 µM in data set [3]; 9.23 ± 1.96 µM in data set [4] (setting [8]); 29.4 ± 4.6 µM in data set [5]; more than 50 µM in data set [6]. Also, the IC50 in data set [7] was more than 50 µM. In addition, the “SI (MCF-7)” value in data set [2] is recorded as more than 1.3. In addition, the “SI (HCT116)” value in data set [5] is listed as more than 1.7.

`Cc1nc(CNC(=O)C[c-]2cccc2)cc2c1[nH]c1ccccc12.[Fe+2].c1cc[cH-]c1` [Compound 35, N-((1-Methyl-9H-pyrido[3,4-b]indol-3-yl)methyl)-2-ferrocenylacetamide]: the IC50 in data set [1] is 13 ± 5.9 µM; in data set [2], 36.9 ± 6.8 µM; in data set [3] it was more than 50 µM; in data set [4] (setting [8]), 7.85 ± 2.18 µM; in data set [5], 20.9 ± 1.5 µM; in data set [6], 25 ± 8.1 µM. In addition, in data set [7], the IC50 was more than 50 µM. For the same compound, in data set [2], the “SI (MCF-7)” value was more than 1.4. Moreover, the “SI (HCT116)” value in data set [5] is on record as more than 2.4.
